Values joined by “and” are separate entries in the source; they are usually repeats but may differ in a detail not shown here. Identical values can stand only once. Marks after values point to notes of the source that are not given here.

In assay [1] the test system is adipocytes humains normaux. The assay is described as follows: Lipolytic activity: NEFA released by adipocytes in suspension. Type of assay: cell-based, humain. The following applies: for NEFA, Moyenne / NEFA: 2 h; for NEFA, Moyenne: mean of 3, p<0.05 vs control; for NEFA: single replicate. An excerpt:
Les mesures de l'activité lipolytique de plusieurs compositions d'extrait de tourteau de colza à des concentrations différentes ont été effectuées sur des adipocytes humains normaux de tissu cutané adipeux prélevé sur un adulte de 40 ans. Une suspension des adipocytes humains a été incubée pendant 2 H en présence d'une part des compositions d'extrait à tester et d'autre part du produit de référence (contrôle).
Les compositions de concentrations 0,003% (v/v), 0,01% (v/v), et 0,03% (v/v) d'extrait de tourteau de colza ont été préparées par dilution de la solution 50/50 dans le milieu d'incubation.
À la fin de la période d'incubation, la quantité de NEFA libérés dans le milieu d'incubation a été déterminée à l'aide d'un kit de mesure spectro-colométrique spécifique et sensible.
Le niveau de signification entre le "contrôle" et le "produit de référence" a été évalué à l'aide d'un test t de Student (* : p<0,05).
Le niveau de signification entre le le "contrôle" et chaque "composé testé" a été évalué indépendamment pour chaque composition par une analyse de variance à un facteur (ANOVA à sens unique) suivie d'un test de Holm-Sidak (* : p<0,05).

In assay [2] the test system is mélanocytes humains normaux. The assay is described as follows: Propigmenting activity: melanin production by melanocytes (optical density at 405 nm). In kind it is cell-based, humain. As to conditions: 250 µM. As for the experimental part:
Les mesures de l'activité propigmentante (augmentation de la production de mélanine) de plusieurs compositions de l'extrait de tourteau de colza présentant des concentrations différentes ont été effectuée par dosage des mélanocytes humains normaux in vitro.
Les compositions de concentrations 0,03% (v/v), 0,1% (v/v), et 0,3% (v/v) ont été préparées par dilution de la solution 50/50 dans le milieu d'incubation.
Les cultures des mélanocytes normaux d'épiderme humain ont été cultivés en culture monocouche jusqu'à confluence. Puis les mélanocytes ont été incubés pendant 72 heures soit en l'absence de l'extrait à tester (contrôle) soit en présence des différentes compositions de l'extrait à tester. Le produit de référence pour l'inhibition de la synthèse de mélanine était une solution d'acide kojique à 250 µM.
Les quantités de mélanine produite par les mélanocytes ont été déterminées par une méthode spectrophotométrique c'est-à-dire une mesure de densité optique à 405 nm effectuée au moyen d'un spectrophotomètre « Genesys 150 » de la société ThermoFisher Scientific.
Le tableau 7 présente la quantité de mélanine (µg) produite par mg de protéines totales dans le lysat cellulaire monocouche.
Le niveau de signification entre le "contrôle" et la « référence » a été évalué à l'aide d'un test t de Student (* : p<0,05). [Tableau 7]

For `Cn1c(=O)c2c(ncn2C)n(C)c1=O` [Caféine, caféine], in assay [1] (10^-3 mol/L), the “NEFA, Moyenne” value is 47.9* µM; the NEFA was 41.5 µM and 50.3 µM and 51.9 µM. Moreover, the “augmente la lipolyse des adipocytes” value in assay [1] (10^-3 mol/L, increase vs control, p<0.05) was 41.1%. Further, in assay [1] (10^-4 mol/L), the “NEFA, Moyenne” value is listed as 37.7* µM; the NEFA is 37.1 µM and 38.8 µM and 37.2 µM.
Consider `O=c1cc(CO)occ1O` [acide kojique], for which, in assay [2] (72 h), the “mélanine, % du contrôle” value was 52.4%. Further, the “µg mélanine/mg de protéines, Moyenne” value in assay [2] (72 h, mean of 3, p<0.01 vs control) was 35.8** µg mélanine/mg de protéines. Also, in assay [2] (72 h, single replicate), the “µg mélanine/mg de protéines” value was 45.1 µg mélanine/mg de protéines and 30.3 µg mélanine/mg de protéines and 32.0 µg mélanine/mg de protéines. For the same molecule, the “inhibe la production de mélanine” value in assay [2] (inhibition vs control, significant) is listed as 47,6%.

These data come from patent publication EP4151203B1, “RAPESEED MEAL EXTRACT, METHOD FOR PREPARING SAME AND USE IN COSMETICS, IN PARTICULAR AS A PRO-PIGMENTING, SLIMMING AGENT” (Lyster, priority 2021, dated 2023).
